Results as given in patent publication US20180020662A1, “Substituted 1-cycloalkyl-2-oxotetrahydroquinolin-6-ylsulfonamides or salts thereof and use thereof to increase stress tolerance in plants” (BAYER CROPSCIENCE AKTIENGESELLSCHAFT, priority 2015, published 2018).

Each compound was assayed on Triticum aestivum (assay: Drought stress test on potted crop plants, spray application, visual scoring against stressed control plants). Details: dosage 250 g/ha, mean of at least three repeats.
Type: in vivo
Parameters: key: 0: no positive effect; +: slight positive effect; ++: clear positive effect; +++: strong positive effect
Description: Seeds of monocotyledonous and dicotyledonous crop plants were sown in sandy loam in plastic pots, covered with soil or sand and cultivated in a greenhouse under good growth conditions. The test plants are treated at the early leaf stage (BBCH10-BBCH13). To assure uniform water supply before commencement of stress, the potted plants were supplied with water by dam irrigation prior to substance application. The inventive compounds were first formulated as wettable powders (WP) or dissolved in a solvent mixture. The further dilution was effected with water supplemented with 0.2% wetting agent (e.g. agrotin). The finished spray liquor was sprayed onto the green parts of the plant at an equivalent water application rate of 600 I/ha. Substance application was followed immediately by stress treatment of the plants. Drought stress was induced by gradual drying out under the following conditions: “Day”: 14 hours with illumination at […]. “Night”: 10 hours without illumination at […]. The duration of the respective stress phases was guided mainly by the condition of the stressed control plants. It was ended (by re-irrigating and transfer to a greenhouse with good growth conditions) as soon as irreversible damage was observed on the stressed control plants. The end of the stress phase was followed by an about 4-7-day recovery phase, during which the plants were once again kept under good growth conditions in a greenhouse. The duration of the recovery phase was guided mainly by when the trial plants had attained a state which enabled visual scoring of potential effects, and was therefore variable. Once this juncture had been reached, the appearance of the plants treated with test substances was recorded in comparison to the stressed control plants by the following categories: • 0 no positive effect • + slight positive effect • ++ clear positive effect • +++ strong positive effect In order to rule out any influence on the effects observed by any fungicidal or insecticidal action of the test compounds, it was additionally ensured that the tests proceeded without fungal infection or insect infestation. The values reported in tables A-1 and A-2 below are mean values of the results from at least three repeats. Effects of selected compounds of the general formula (I) under drought stress according to the following tables A-1 and A-2: In the above tables: BRSNS =Brassica napus TRZAS =Triticum aestivum

Row | SMILES | Effect (TRZAS)
1 | N#Cc1ccc(S(=O)(=O)Nc2ccc3c(c2)CCC(=O)N3C23CC(C2)C3)cc1 [A30-45] | +

These compounds were tested against T1, phosphatase ABI1 via the co-regulator RCAR11/PYR1 (Arabidopsis thaliana, UniProt O49686+P49597) (assay: In vitro assay: inhibition of ABI1 dephosphorylation of 4-methylumbelliferyl phosphate (MUP), fluorescence). Details: concentration of 5 mM of the substance in DMSO and water, 35° C., 20 minutes.
T1 sequence (O49686 1-191): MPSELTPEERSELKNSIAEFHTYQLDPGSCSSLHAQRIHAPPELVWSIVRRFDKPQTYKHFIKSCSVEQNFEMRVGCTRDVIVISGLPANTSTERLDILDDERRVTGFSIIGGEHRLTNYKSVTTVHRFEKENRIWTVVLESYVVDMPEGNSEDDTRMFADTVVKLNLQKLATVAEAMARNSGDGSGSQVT
T1 sequence (P49597 1-434): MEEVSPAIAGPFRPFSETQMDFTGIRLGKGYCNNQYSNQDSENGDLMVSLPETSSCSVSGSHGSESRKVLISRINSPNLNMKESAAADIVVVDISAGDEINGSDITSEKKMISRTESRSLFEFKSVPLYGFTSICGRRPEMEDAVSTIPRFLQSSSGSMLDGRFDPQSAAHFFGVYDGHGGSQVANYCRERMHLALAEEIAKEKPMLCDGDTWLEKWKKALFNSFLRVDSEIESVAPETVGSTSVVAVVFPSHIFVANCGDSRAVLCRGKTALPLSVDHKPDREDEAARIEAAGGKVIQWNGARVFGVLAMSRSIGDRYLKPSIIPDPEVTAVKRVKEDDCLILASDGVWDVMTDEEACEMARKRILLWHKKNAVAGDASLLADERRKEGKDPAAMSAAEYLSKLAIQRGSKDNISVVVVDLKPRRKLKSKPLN
Type: biochemical
Description: Effects of the phytohormone abscisic acid (ABA) on the behavior of plants under abiotic stress and the mechanism of action of ABA are described in the literature (cf. Abrams et al., WO97/23441, Park et al. Science, 2009, 324, 1068; Grill et al. Science, 2009, 324, 1064; Tanokura et al. Biophysics, 2011, 7, 123; Schroeder et al. Plant J. 2010, 61, 290). Therefore, it is possible with the aid of a suitable in vitro test system to derive a correlation between the action of ABA and the stress response of a plant under abiotic stress. In the event of water deficiency (drought stress), plants form the phytohormone abscisic acid (ABA). This binds, along with a co-regulator (Regulatory Component of ABA-Receptor=RCAR according to Grill et al. Science, 2009, 324, 1064 or PYR/PYL according to Cutler et al. Science, 2009, 324, 1068), to a phosphatase (e.g. ABI1, a type 2C protein phosphatase, also abbreviated to PP2C) and inhibits its activity. As a result, a “downstream” kinase (e.g. SnRK2) is no longer dephosphorylated. This kinase, which is thus active, via phosphorylation of transcription factors (e.g. AREB/ABF, cf. Yoshida et al Plant J. 2010, 61, 672), switches on a genetic protection program to increase drought stress tolerance. The assay described hereinafter utilizes the inhibition of the phosphatase ABI1 via the co-regulator RCAR11/PYR1 aus Arabidopsis thaliana. For the determination of activity, the dephosphorylation of 4-methylumbelliferyl phosphate (MUP) was measured at 460 nm. The in vitro assay was conducted in Greiner 384-well PS microplates F-well, using two controls: a) 0.5% dimethyl sulfoxide (DMSO) and b) 5 μM abscisic acid (ABA). The assay described here was generally conducted with substance concentrations of the appropriate chemical test substances in a concentration range of 0.1 μM to 100 μM in a solution of DMSO and water. The substance solution thus obtained, if necessary, was stirred with esterase from porcine liver (EC 3.1.1.1) at room temperature for 3 h and centrifuged at 4000 rpm for 30 min. A total volume of 45 μl was introduced into each cavity of the microplate, having the following composition: • 1) 5 μl of substance solution, i.e. a) DMSO 5% or b) abscisic acid solution or c) the corresponding example compound of the general formula (I) dissolved in 5% DMSO. • 2) 20 μl of enzyme buffer mix, composed of a) 40% by vol. of enzyme buffer (10 ml contain equal proportions by volume of 500 mM Tris-HCl pH 8, 500 mM NaCl, 3.33 mM MnCl2, 40 mM dithiothreitol (DTT)), b) 4% by vol. of ABI1 dilution (protein stock solution was diluted so as to give, after addition, a final concentration in the assay of 0.15 μg ABI1/well), c) 4% by vol. of RCAR11 dilution (enzyme stock was diluted so as to give, on addition of the dilution to the enzyme buffer mix, a final concentration in the assay of 0.30 μg enzyme/well), d) 5% by vol. of Tween20 (1%), e) 47% by vol. H2O bi-dist. • 3) 20 μl of substrate mix, composed of a) 10% by vol. of 500 mM Tris-HCl pH 8, b) 10% by vol. of 500 mM NaCl, c) 10% by vol. of 3.33 mM MnCl2, d) 5% by vol. of 25 mM MUP, 5% by vol. of Tween20 (1%), 60% by vol. of H2O bi-dist.
Enzyme buffer mix and substrate mix were made up 5 minutes prior to the addition and warmed to a temperature of 35° C. On completion of pipetting of all the solutions and on completion of mixing, the plate was incubated at 35° C. for 20 minutes. Finally, a relative fluorescence measurement was made at 35° C. with a BMG Labtech “POLARstar Optima” microplate reader using a 340/10 nm excitation filter and a 460 nm emission filter. The efficacy of the compounds of the general formula (I) is reported in the table which follows using abscisic acid […] as comparative substance (no. 38) according to the following classification: ++++(inhibition ≧90%), +++(90% >inhibition ≧70%), ++(70% >inhibition ≧50%), +(50% >inhibition ≧30%). […]

Row | ABI1 inhibition | SMILES
2 | ++++ (inhibition ≧90%) | CC1CC(N2C(=O)CCc3cc(NS(=O)(=O)Cc4ccc([N+](=O)[O-])cc4)ccc32)C1 (stereo not drawn) [A26-175]
3 | ++++ (inhibition ≧90%) | Cc1ccc(CS(=O)(=O)Nc2ccc3c(c2)CCC(=O)N3C2CC2C2CC2)cc1 (stereo not drawn) [A16-152, N-{1-[1,1′-bi(cyclopropyl)-2-yl]-2-oxo-1,2,3,4-tetrahydroquinolin-6-yl}-1-(4-methylphenyl)methanesulfonamide]
4 | ++++ (inhibition ≧90%) | CC1CC(N2C(=O)CCc3cc(NS(=O)(=O)Cc4ccc(C(C)(C)C)cc4)ccc32)C1 (stereo not drawn) [A26-332]
5 | ++++ (inhibition ≧90%) | CCc1ccc(CS(=O)(=O)Nc2ccc3c(c2)CCC(=O)N3C2(C3CC3)CC2)cc1 [A3-325]
6 | +++ (90% >inhibition ≧70%) | O=C1CCc2cc(NS(=O)(=O)Cc3ccc(Cl)cc3)ccc2N1C1CC2(CCC2)C1 [A33-165]
7 | +++ (90% >inhibition ≧70%) | CC(C)(C)c1ccc(CS(=O)(=O)Nc2ccc3c(c2)CCC(=O)N3C2CC2C2CC2)cc1 (stereo not drawn) [A16-332]
8 | ++ (70% >inhibition ≧50%) | O=C1CCc2cc(NS(=O)(=O)Cc3cc(F)cc(F)c3)ccc2N1C1CC1C1CC1 (stereo not drawn) [A16-164]
9 | ++++ (inhibition ≧90%) | CC1CC(N2C(=O)CCc3cc(NS(=O)(=O)Cc4ccc(Cl)cc4)ccc32)C1 (stereo not drawn) [A26-165, 1-(4-Chlorophenyl)-N-[1-(3-methylcyclobutyl)-2-oxo-1,2,3,4-tetrahydroquinolin-6-yl]methanesulfonamide]
10 | ++++ (inhibition ≧90%) | Cc1ccc(CS(=O)(=O)Nc2ccc3c(c2)CCC(=O)N3C23CC(C2)C3)cc1 [A30-152]
11 | +++ (90% >inhibition ≧70%) | O=C1CCc2cc(NS(=O)(=O)Cc3ccc(F)cc3)ccc2N1C1CC1C1CC1 (stereo not drawn) [A16-158]
12 | ++++ (inhibition ≧90%) | Cc1ccc(CS(=O)(=O)Nc2ccc3c(c2)CCC(=O)N3C2(C)CC2)cc1 [A1-152]
13 | ++++ (inhibition ≧90%) | O=C1CCc2cc(NS(=O)(=O)Cc3ccc(C(F)(F)F)cc3)ccc2N1C12CC(C1)C2 [A30-178, N-[1-(Bicyclo[1.1.1]pent-1-yl)-2-oxo-1,2,3,4-tetrahydroquinolin-6-yl]-1-[4-(trifluoromethyl)phenyl]methanesulfonamide]
14 | ++++ (inhibition ≧90%) | Cc1ccc(CS(=O)(=O)Nc2ccc3c(c2)CCC(=O)N3C2CC(C)C2)cc1 (stereo not drawn) [A26-152]
15 | ++++ (inhibition ≧90%) | Cc1ccc(CS(=O)(=O)Nc2ccc3c(c2)CCC(=O)N3C2(C3CC3)CC2)cc1 [A3-152, N-{1-[1,1′-bi(cyclopropyl)-1-yl]-2-oxo-1,2,3,4-tetrahydroquinolin-6-yl}-1-(4-methylphenyl)methanesulfonamide]
16 | ++++ (inhibition ≧90%) | O=C1CCc2cc(NS(=O)(=O)Cc3ccc(Cl)cc3)ccc2N1C1CC1C1CC1 (stereo not drawn) [A16-165]

Second part, the compound before the results:

Row | SMILES | ABI1 inhibition
17 | Cc1cccc(CS(=O)(=O)Nc2ccc3c(c2)CCC(=O)N3C2(C3CC3)CC2)c1 [A3-153] | +++ (90% >inhibition ≧70%)
18 | CC1CC(N2C(=O)CCc3cc(NS(=O)(=O)Cc4cccc(C#N)c4)ccc32)C1 (stereo not drawn) [A26-182] | ++++ (inhibition ≧90%)
19 | Cc1ccc(S(=O)(=O)Nc2ccc3c(c2)CCC(=O)N3C23CC(C2)C3)cc1 [A30-50] | ++ (70% >inhibition ≧50%)
20 | CC1CC(N2C(=O)CCc3cc(NS(=O)(=O)Cc4cc(F)cc(F)c4)ccc32)C1 (stereo not drawn) [A26-164] | ++++ (inhibition ≧90%)
21 | N#Cc1ccc(CS(=O)(=O)Nc2ccc3c(c2)CCC(=O)N3C2CC3(CCC3)C2)cc1 [A33-181, 1-(4-Cyanophenyl)-N-[2-oxo-1-(spiro[3.3]hept-2-yl)-1,2,3,4-tetrahydroquinolin-6-yl]methanesulfonamide] | +++ (90% >inhibition ≧70%)
22 | O=C1CCc2cc(NS(=O)(=O)Cc3cccc(F)c3)ccc2N1C12CC(C1)C2 [A30-159] | +++ (90% >inhibition ≧70%)
23 | N#Cc1ccc(CS(=O)(=O)Nc2ccc3c(c2)CCC(=O)N3C23CC(C2)C3)cc1 [A30-181] | ++++ (inhibition ≧90%)
24 | O=C1CCc2cc(NS(=O)(=O)Cc3cccc(Cl)c3)ccc2N1C12CC(C1)C2 [A30-166] | ++ (70% >inhibition ≧50%)
25 | CC1(N2C(=O)CCc3cc(NS(=O)(=O)Cc4ccc(F)cc4)ccc32)CC1 [A1-158] | ++++ (inhibition ≧90%)
26 | O=C1CCc2cc(NS(=O)(=O)Cc3cccc(Cl)c3)ccc2N1C1(C2CC2)CC1 [A3-166] | +++ (90% >inhibition ≧70%)
27 | CC1=CC(=O)CC(C)(C)[C@@]1(O)/C=C/C(C)=C\C(=O)O [abscisic acid, reference compound] | ++++ (inhibition ≧90%)
